Entries after “also recorded” stand apart in the source; their conditions may differ. Like-named read-outs stand apart in the source and are kept apart here.
Key:
Assay type in all cases: cell-based, human
A549 cells = test: Microscopic observation of cell morphology (phase contrast images); conditions: non-treated cells as control
Experimental: (§1) The oligo-siRNAs (Dharmacon, Inc., Lafayette, Colo.) ([…]) were transfected into appropriate lung-cancer cell lines using 30 micro-1 of Lipofectamine 2000 (Invitrogen, Carlsbad, Calif.) following the manufacturer's protocol. The ribonucleotide sequences corresponding to following sequences were used as the oligo-siRNA.
The endogenous association between TTK and EGFR in lung cancer cells was also investigated by immunoprecipitaion experiment using extracts from A549 cells, and the interaction between these two proteins regardless the EGF-stimulation was detected (FIG. 4b). To further examine the relevance of TTK to EGFR signaling, TTK or EGFR function in A549 cells were suppressed and cell morphology was microscopically observed.

phospho-EGFR (Tyr-992) = test: Phospho-EGFR (Tyr-992) level in A549 cells after RNAi (immunofluorescence, western blot); conditions: for phosphorylation level of EGFR Tyr-992, western blot: A549 cells; for phospho-EGFR (Tyr-992), immunofluorescence: serum-starved A549 cells
Experimental: (§2) Cells were lysed with RIPA buffer [50 mM Tris-HCl (pH 8.0), 150 mM NaCl, 1% NP-40, 0.5% deoxychorate-Na, 0.1% SDS] containing Protease Inhibitor Cocktail Set III (CALBIOCHEM) and phosphatase inhibitor (1 mM sodium fluoride, 1 mM sodium orthovanadate, 2 mM imidazole, 4 mM sodium tartrate). Cytoplasmic and nuclear extractions were isolated by NE-PER Nuclear and Cytoplasmic Extraction Reagents (PIERCE). Protein samples were separated by SDS-polyacrylamide gels and electroblotted onto Hybond-ECL nitrocellulose membranes (GE Healthcare Bio-sciences). Blots were incubated with a mouse monoclonal anti-Mps1 (TTK) antibody (Upstate), rabbit polyclonal anti-phospho-EGFR antibodies (Tyr-845, Tyr-992, Tyr-1045, Tyr-1068, […], and Tyr-1173; Cell Signaling Technology, Inc.), a rabbit polyclonal anti-EGFR antibody (Cell Signaling Technology, Inc.), a rabbit polyclonal anti-phospho-PLCgamma1 (Tyr-771) antibody (Cell Signaling Technology, Inc.), a rabbit polyclonal anti-PLCgamma1 antibody (Cell Signaling Technology, Inc.), a rabbit polyclonal anti-phospho-p44/42 MAPK (Thr202/Tyr204) antibody (Cell Signaling Technology, Inc.), a rabbit polyclonal anti-p44/42 MAPK antibody (Cell Signaling Technology, Inc.), a mouse monoclonal anti-Flag antibody (SIGMA) or a mouse monoclonal anti-beta-actin antibody (SIGMA). Anti-phospho-EGFR (Ser-967) antibodies were raised against Ser-967-phosphorylated synthetic peptides and purified with the phosphopeptide column. Antigen-antibody complexes were detected using secondary antibodies conjugated to horseradish peroxidase (GE Healthcare Bio-sciences). Protein bands were visualized by ECL Western Blotting Detection Reagents (GE Healthcare Bio-sciences).
Cultured cells were fixed with 4% paraformaldehyde solution for 15 min at 37° C., or 10% Trichloro acetic acid for 15 min on ice. Fixed cells were incubated in PBS(−) containing 0.1% Triton X-100 for 10 min and subsequently washed with PBS(−). Prior to the primary antibody reaction, fixed cells were covered with CAS-BLOCK (ZYMED Laboratories Inc.) for 10 min to block non-specific-antibody binding. Then the cells were incubated with a mouse monoclonal anti-Mps1 (TTK) antibody (Upstate) and a rabbit polyclonal anti-phospho-EGFR (Tyr-992) (Cell Signaling Technology, Inc.), or a rabbit polyclonal anti-phospho-p44/42 MAPK (Thr202/Tyr204) antibody (Cell Signaling Technology, Inc.), or a mouse monoclonal anti-Flag antibody (SIGMA). Antibodies were stained with an anti-mouse secondary antibody conjugated to Alexa Fluor 488 (Molecular Probes) and an anti-rabbit secondary antibody conjugated to Alexa Fluor 594 (Molecular Probes). […] Images were viewed and assessed using a confocal microscope at wavelengths of 488, 594 nm (TCS SP2 AOBS: Leica Microsystems). […]

phospho-EGFR (Ser-967) = test: Phospho-EGFR (Ser-967) level in A549 cells after RNAi (immunofluorescence)
Experimental: (§3) Cells were lysed with RIPA buffer [50 mM Tris-HCl (pH 8.0), 150 mM NaCl, 1% NP-40, 0.5% deoxychorate-Na, 0.1% SDS] containing Protease Inhibitor Cocktail Set III (CALBIOCHEM) and phosphatase inhibitor (1 mM sodium fluoride, 1 mM sodium orthovanadate, 2 mM imidazole, 4 mM sodium tartrate). Cytoplasmic and nuclear extractions were isolated by NE-PER Nuclear and Cytoplasmic Extraction Reagents (PIERCE). Protein samples were separated by SDS-polyacrylamide gels and electroblotted onto Hybond-ECL nitrocellulose membranes (GE Healthcare Bio-sciences). […] Antigen-antibody complexes were detected using secondary antibodies conjugated to horseradish peroxidase (GE Healthcare Bio-sciences). […]
Cultured cells were fixed with 4% paraformaldehyde solution for 15 min at 37° C., or 10% Trichloro acetic acid for 15 min on ice. […] Images were viewed and assessed using a confocal microscope at wavelengths of 488, 594 nm (TCS SP2 AOBS: Leica Microsystems). […]

PLCγ1 and p44/42 MAPK = test: Western blot of PLCγ and p44/42 MAPK in A549 cells after RNAi
Experimental: as §2, §1

TTK = TTK protein level in A549 cells after RNAi (western blot)
Experimental: as §3

[1] = listed as RNAi (oligo) against TTK

CAAGATGTGTTAAAGTGTTTT (listed as DNA, chemistry not given here) [RNAi-TTK (oligo)]
cell morphology (A549 cells): became much larger with multiple nuclei | phosphorylation level of EGFR Tyr-992, western blot (phospho-EGFR (Tyr-992)): decreased | phosphorylation level of EGFR Tyr-992, western blot (phospho-EGFR (Tyr-992); [1]): reduced | phospho-EGFR (Tyr-992), immunofluorescence (phospho-EGFR (Tyr-992)): significantly decreased | phospho-EGFR (Tyr-992), immunofluorescence (phospho-EGFR (Tyr-992); listed as si-TTK): reduced | levels of phospho-EGFR Ser-967, immunofluorescence (phospho-EGFR (Ser-967)): decreased significantly | levels of phospho-EGFR Ser-967, immunofluorescence (phospho-EGFR (Ser-967); [1]): reduced | amount of PLCγ protein (PLCγ1 and p44/42 MAPK): did not affect | amount of p44/42 MAPK protein (PLCγ1 and p44/42 MAPK): did not affect | phospho-PLCγ (Tyr-771) (PLCγ1 and p44/42 MAPK): decrease | phosphorylation of p44/42 MAPK (Thr202/Tyr204) (PLCγ1 and p44/42 MAPK): decrease | phospho-PLCγ (Tyr-771) (PLCγ1 and p44/42 MAPK; [1]): reduced | phosphorylation of p44/42 MAPK (Thr202/Tyr204) (PLCγ1 and p44/42 MAPK; [1]): reduced | TTK protein (TTK): Reduction; also recorded: suppression

Reference: patent US20100009920A1, “TTK AS TUMOR MARKER AND THERAPEUTIC TARGET FOR LUNG CANCER” (priority 2006, published 2010)
